From US20250241890A1, “1,4-DIUREAS AND 1,4-DITHIOUREAS AND USES THEREOF” (Purdue Research Foundation, priority 2024, published 2025)
Entries after “also recorded” stand apart in the source; their conditions may differ. Each block holds one molecule with its values, some of them ahead of it.

How the values were obtained:
α-synuclein (α-syn) [1] = target: T1, α-synuclein (α-syn) (Homo sapiens, UniProt P37840); assay: Thioflavin T (ThT) fluorescence assay of α-syn fibril formation; assay type: biochemical; details: compounds at 100 μM; for maximum thioflavin T (ThT) intensity in percentage: α-syn 6 μM final concentration, average of three replicates; for remaining activity at 100 µM / % ThT intensity (100 μM), maximum ThT intensity in percentage: α-syn 2 μM final concentration, average of three replicates with SEM; for remaining activity at 100 µM: read-out: % ThT intensity (100 μM), maximum ThT intensity in percentage
T1 construct: purchased rPeptide (Watkinsville, GA)
Protocol: Chemical and peptide source. Dimethylsulfoxide (DMSO) and thioflavin-T (ThT) were purchased from Alfa Aesar (Ward Hill, MA). Recombinant α-synuclein (α-syn) was procured from rPeptide (WatKinsville, GA). The recombinant p-tau isoform 1N4R was prepared as published previously (Fortin et al. 2021, Sui et al. 2015, Liu et al. 2020). Concerning the preparation of tau 0N4R, a bacterial expression plasmid consisting of the vector pET30a carrying a cDNA encoding the human Tau 0N4R isoform was a kind gift of Dr. Benjamin Wolozin (Boston University). E. coli stock (Rosetta BL21 E. coli (CamR) containing pET30a [0N4R tau wt] (KanR)) was grown in LB medium supplemented with kanamycin (50 μg/mL) and chloramphenicol (50 μg/mL). Protein over-expression was induced by the addition of 1 mM IPTG for ˜18 hours at 37° C., and cells were pelleted by centrifugation at 6,000 g for 15 minutes at 4° C. The cells were resuspended in lysis buffer (10 mM Hepes, pH 7.4, 50 mM NaCl, 1 mM MgCl2, 1 mM PMSF, 1× PIC, and 0.5 mM DTT) and lysed by sonication at 30 seconds “On” and 1 minute “Off” at ˜30-45% power for ˜3-5 minutes. Lysate was centrifuged at 10,000 rpm for 10 minutes at 4° C., and supernatant was transferred with 7.8 ml (total) of 3M NaCl. The lysate was incubated for 10 minutes in 80° C. water bath, then cooled for 10 minutes in an ice bath. The lysate was centrifuged at 10,000 rpm at 4° C. for 10 minutes, and the supernatant was transferred to a new tube. The supernatant was dialyzed overnight against cation exchange buffer (50 mM MES, […], 1 mM DTT, pH 6.0). The dialysate was loaded onto a HiPrep SP HP column, and proteins were eluted with a linear gradient ranging from 50 mM to 1 M NaCl. General Characterizations. ^1H and ^13C {1H} NMR spectra were recorded using a 500 MHz Bruker instrument working at a frequency of 500 MHz for ^1H and at 126 MHz for ^13C. Chemical shifts are reported in ppm using residual solvent resonances as internal reference (δ 2.50 and δ 39.51 for ^1H and ^13C in DMSO-d6, respectively). ^1H NMR data are reported as follows. b=broad, s=singlet, d=doublet, t=triplet, q=quartet, and m=multiplet. Coupling constants are given in hertz. The purity of all compounds and synthetic intermediates was judged to be 95% or better based on ^1H NMR. IR measurements were performed in a Nicolet FTIR as thin films in the Purdue Drug Discovery facility. High-resolution mass spectrometry analyses were conducted at the MSU Mass Spectrometry facility. Thioflavin fluorescence assays. […] The recombinant α-syn obtained from rPeptide has been validated with proper quality control to confirm the monomeric state of the protein. Kinetics of fibril formation have been performed using ThT as published previously.^6, 12, 13, 24 The fluorescence emission experiments were performed with the excitation and emission wavelengths set at 440 and 485 nm, respectively, with a Synergy HT multi-mode microplate reader (BioTek, Winooski, VT). Samples were measured in three replicates. Experiments were repeated three times using different α-syn stock solutions. For each time point, arbitrary units of fluorescence were calculated from the mean values normalized against the maximum value. The percentage of fluorescence intensity at the plateau phase in Table 1 was expressed as mean #SEM. Concerning the dose response curve depicted in FIG. 2, the data were plotted using GraphPad Prism. Photo-induced Cross-linking of Unmodified Proteins (PICUP) Assay. To induce oligomerization by cross-linking, α-syn (from Rpeptide, LLC) was diluted in 10 mM phosphate buffer (pH 7.4) to reach a final concentration of 50 μM. Different compounds were added to the protein solution at a final concentration of 50 μM, resulting in a molar ratio of 1:1. PICUP assays were performed with the following controls: samples without light exposition, without Ru(bpy) or ammonium persulfate, and without compound (i.e., 0.125% DMSO). […]

α-synuclein (α-syn) [2] = target: T1, α-synuclein (α-syn); assay: PICUP assay of α-syn oligomer formation; assay type: biochemical; details: α-syn 60 μM, compound 50 μM (~molar ratio 1:1)
Protocol: Chemical and peptide source. Dimethylsulfoxide (DMSO) and thioflavin-T (ThT) were purchased from Alfa Aesar (Ward Hill, MA). Recombinant α-synuclein (α-syn) was procured from rPeptide (WatKinsville, GA). The recombinant p-tau isoform 1N4R was prepared as published previously (Fortin et al. 2021, Sui et al. 2015, Liu et al. 2020). Concerning the preparation of tau 0N4R, a bacterial expression plasmid consisting of the vector pET30a carrying a cDNA encoding the human Tau 0N4R isoform was a kind gift of Dr. Benjamin Wolozin (Boston University). E. coli stock (Rosetta BL21 E. coli (CamR) containing pET30a [0N4R tau wt] (KanR)) was grown in LB medium supplemented with kanamycin (50 μg/mL) and chloramphenicol (50 μg/mL). Protein over-expression was induced by the addition of 1 mM IPTG for ˜18 hours at 37° C., and cells were pelleted by centrifugation at 6,000 g for 15 minutes at 4° C. The cells were resuspended in lysis buffer (10 mM Hepes, pH 7.4, 50 mM NaCl, 1 mM MgCl2, 1 mM PMSF, 1× PIC, and 0.5 mM DTT) and lysed by sonication at 30 seconds “On” and 1 minute “Off” at ˜30-45% power for ˜3-5 minutes. Lysate was centrifuged at 10,000 rpm for 10 minutes at 4° C., and supernatant was transferred with 7.8 ml (total) of 3M NaCl. The lysate was incubated for 10 minutes in 80° C. water bath, then cooled for 10 minutes in an ice bath. The lysate was centrifuged at 10,000 rpm at 4° C. for 10 minutes, and the supernatant was transferred to a new tube. The supernatant was dialyzed overnight against cation exchange buffer (50 mM MES, […], 1 mM DTT, pH 6.0). The dialysate was loaded onto a HiPrep SP HP column, and proteins were eluted with a linear gradient ranging from 50 mM to 1 M NaCl. General Characterizations. ^1H and ^13C {1H} NMR spectra were recorded using a 500 MHz Bruker instrument working at a frequency of 500 MHz for ^1H and at 126 MHz for ^13C. Chemical shifts are reported in ppm using residual solvent resonances as internal reference (δ 2.50 and δ 39.51 for ^1H and ^13C in DMSO-d6, respectively). ^1H NMR data are reported as follows. b=broad, s=singlet, d=doublet, t=triplet, q=quartet, and m=multiplet. Coupling constants are given in hertz. The purity of all compounds and synthetic intermediates was judged to be 95% or better based on ^1H NMR. IR measurements were performed in a Nicolet FTIR as thin films in the Purdue Drug Discovery facility. High-resolution mass spectrometry analyses were conducted at the MSU Mass Spectrometry facility. Thioflavin fluorescence assays. Thioflavin fluorescence assays were used to monitor fibril formation of commercial recombinant α-syn at a final concentration of 2 μM and treated with control DMSO and different compounds. The recombinant α-syn obtained from rPeptide has been validated with proper quality control to confirm the monomeric state of the protein. Kinetics of fibril formation have been performed using ThT as published previously.^6, 12, 13, 24 The fluorescence emission experiments were performed with the excitation and emission wavelengths set at 440 and 485 nm, respectively, with a Synergy HT multi-mode microplate reader (BioTek, Winooski, VT). Samples were measured in three replicates. Experiments were repeated three times using different α-syn stock solutions. For each time point, arbitrary units of fluorescence were calculated from the mean values normalized against the maximum value. The percentage of fluorescence intensity at the plateau phase in Table 1 was expressed as mean #SEM. Concerning the dose response curve depicted in FIG. 2, the data were plotted using GraphPad Prism. Photo-induced Cross-linking of Unmodified Proteins (PICUP) Assay. […] Different compounds were added to the protein solution at a final concentration of 50 μM, resulting in a molar ratio of 1:1. PICUP assays were performed with the following controls: samples without light exposition, without Ru(bpy) or ammonium persulfate, and without compound (i.e., 0.125% DMSO). […]

Molecule: O=C(Nc1cccc(NC(=O)Nc2ccc3cc[nH]c3c2)c1)Nc1ccc2cc[nH]c2c1 [Compound 14, 3-(1H-indol-6-yl)-1-(3-{[(1H-indol-6-yl)carbamoyl]amino}phenyl)urea]
maximum thioflavin T (ThT) intensity in percentage (α-synuclein (α-syn) [1]): Compound 14 12.4 ± 1.8%

Molecule: O=C(Nc1ccc(NC(=O)Nc2ccc3[nH]ccc3c2)cc1)Nc1ccc2[nH]ccc2c1 [Compound 3, 3-(1H-indol-5-yl)-1-(4-{[(1H-indol-5-yl)carbamoyl]amino}phenyl)urea]
remaining activity at 100 µM (α-synuclein (α-syn) [1]): 57%
effect on α-syn oligomer formation (high molecular weight bands) by PICUP (α-synuclein (α-syn) [2]): mediocre; also recorded: reduced slightly

Molecule: Nc1ccc2cc[nH]c2c1 [6-aminoindole, reference compound]
effect on α-syn oligomer formation (high molecular weight bands) by PICUP (α-synuclein (α-syn) [2]): abrogated the formation of high molecular weight bands

Molecule: O=C(Nc1cccc(NC(=O)Nc2cccc3[nH]ccc23)c1)Nc1cccc2[nH]ccc12 [Compound 12, 3-(1H-indol-4-yl)-1-(3-{[(1H-indol-4-yl)carbamoyl]amino}phenyl)urea]
maximum thioflavin T (ThT) intensity in percentage (α-synuclein (α-syn) [1]): Compound 12 8.8 ± 0.2%

Molecule: O=C(Nc1ccccc1)Nc1cccc(NC(=O)Nc2ccccc2)c1 [Compound 11, 3-phenyl-1-{3-[(phenylcarbamoyl)amino]phenyl}urea]
maximum thioflavin T (ThT) intensity in percentage (α-synuclein (α-syn) [1]): Compound 11 108.6 ± 4.7%

Molecule: Nc1cccc2[nH]ccc12 [4-aminoindole, reference compound]
effect on α-syn oligomer formation (high molecular weight bands) by PICUP (α-synuclein (α-syn) [2]): abrogated the formation of high molecular weight bands

Molecule: O=C(Nc1cccc(NC(=O)Nc2cccc3[nH]ccc23)c1)Nc1cccc2[nH]ccc12 [Compound 15, 3-(1H-indol-4-yl)-1-(3-{[(1H-indol-4-yl)carbamoyl]amino}phenyl)urea]
maximum thioflavin T (ThT) intensity in percentage (α-synuclein (α-syn) [1]): Compound 15 28.1 ± 2.1%

Molecule: O=C(Nc1cccc(NC(=O)Nc2ccc3[nH]ccc3c2)c1)Nc1ccc2[nH]ccc2c1 [Compound 13, 3-(1H-indol-5-yl)-1-(3-{[(1H-indol-5-yl)carbamoyl]amino}phenyl)urea]
maximum thioflavin T (ThT) intensity in percentage (α-synuclein (α-syn) [1]): Compound 13 27.7 ± 2.9%

Molecule: S=C(Nc1ccccc1)Nc1ccc(NC(=S)Nc2ccccc2)cc1 [Compound 10, 1-phenyl-3-{4-[(phenylcarbamothioyl)amino]phenyl}thiourea]
remaining activity at 100 µM (α-synuclein (α-syn) [1]): 94%

Molecule: O=C(Nc1ccccc1)Nc1ccc(NC(=O)Nc2ccccc2)cc1 [Compound 9, 1-phenyl-3-{4-[(phenylcarbamoyl)amino]phenyl}urea]
remaining activity at 100 µM (α-synuclein (α-syn) [1]): 93.5%

Molecule: Nc1ccc2[nH]ccc2c1 [5-aminoindole, reference compound]
effect on α-syn oligomer formation (high molecular weight bands) by PICUP (α-synuclein (α-syn) [2]): abrogated the formation of high molecular weight bands

Further lines, results first:

maximum thioflavin T (ThT) intensity in percentage (α-synuclein (α-syn) [1]): Compound 16 23.4 ± 0.2%
Molecule: Cc1c(NC(=O)Nc2cccc3[nH]ccc23)cccc1NC(=O)Nc1cccc2[nH]ccc12 [Compound 16, 3-(1H-indol-4-yl)-1-(3-{[(1H-indol-4-yl)carbamoyl]amino}-2-methylphenyl)urea]

maximum thioflavin T (ThT) intensity in percentage (α-synuclein (α-syn) [1]): Compound 18 49.7 ± 5.0%
Molecule: Cc1c(NC(=O)Nc2ccc3cc[nH]c3c2)cccc1NC(=O)Nc1ccc2cc[nH]c2c1 [Compound 18, 3-(1H-indol-6-yl)-1-(3-{[(1H-indol-6-yl)carbamoyl]amino}-2-methylphenyl)urea]

% ThT intensity (100 μM), maximum ThT intensity in percentage (α-synuclein (α-syn) [1]): 19 41.6 ± 3.6%
Molecule: 1,1′-(1,4-phenylene)bis(3-(pyridin-4-yl)urea) [Compound 19]

maximum thioflavin T (ThT) intensity in percentage (α-synuclein (α-syn) [1]): Compound 17 116.4 ± 8.8%
Molecule: Cc1c(NC(=O)Nc2ccc3[nH]ccc3c2)cccc1NC(=O)Nc1ccc2[nH]ccc2c1 [Compound 17, 3-(1H-indol-5-yl)-1-(3-{[(1H-indol-5-yl)carbamoyl]amino}-2-methylphenyl)urea]

remaining activity at 100 µM (α-synuclein (α-syn) [1]): 91.6%
Molecule: O=C(Nc1cccc2[nH]ccc12)N[C@H]1CC[C@H](NC(=O)Nc2cccc3[nH]ccc23)CC1 [Compound 21, 1,1′-((1R,4R)-cyclohexane-1,4-diyl)bis(3-(1H-indol-4-yl)urea)]

% ThT intensity (100 μM), maximum ThT intensity in percentage (α-synuclein (α-syn) [1]): 20 85% ± <15
Molecule: 1,1′-(1,4-phenylene)bis(3-cyclohexylthiourea) [Compound 20]

remaining activity at 100 µM (α-synuclein (α-syn) [1]): 93.5%
Molecule: Cc1c(NC(=O)Nc2ccc(N3CCOCC3)cc2)cccc1NC(=O)Nc1ccc(N2CCOCC2)cc1 [Compound 22, 1,1′-(2-methyl-1,3-phenylene)bis(3-(4-morpholinophenyl)urea)]
